This is an account of results in patent US20190177774A1, “MOLECULAR REFERENCE CONTROLS” (STRECK, INC., priority 2016, published 2019).

Experiment in all cases: Time to stabilization (viability and sterility after addition of stabilizer)
The test system of one experiment is E. coli. The experiment is classed as cell-based, Escherichia coli. On the procedure:
(§1) In one example, bacterial cells containing target gene sequences were stabilized with various cross-linkers and evaluated by microbiological methods. Viability and sterility were evaluated at various time points following addition of stabilizer. Time to stabilization was evaluated for particular bacteria/stabilizer combinations as shown below in Table 1.

The subject of a further experiment is N. sicca. The experiment is classed as cell-based, Neisseria sicca. The procedure: as §1
Another experiment concerns C. psuedo. Type of experiment: cell-based, Corynebacterium pseudodiphtheriticum. The procedure: as §1

With `C=O` [Formaldehyde], the “Time to Stabilization” value in the experiment on E. coli, in the experiment on N. sicca and with C. psuedo was 24 h in each case.

Regarding `O=C(CCCCCCC(=O)ON1C(=O)CC(S(=O)(=O)O)C1=O)ON1C(=O)CC(S(=O)(=O)O)C1=O` (centres unmarked) [Bis[sulfosuccinimidyl] Suberate], the “Time to Stabilization” value in the experiment with E. coli is above 120 h.

For o-Phthalaldehyde, the “Time to Stabilization” value amounted to 0.25 h in the experiment with E. coli, 2 h in the experiment with N. sicca and 24 h in the experiment on C. psuedo.

`O=C(CCCCCCC(=O)ON1C(=O)CCC1=O)ON1C(=O)CCC1=O` [Disuccinimidyl Suberate]: the “Time to Stabilization” value in the experiment on E. coli was 120 h.

Take `O=CCCCC=O` [Glutaraldehyde]: the “Time to Stabilization” value in the experiment with E. coli is 2 h; in the experiment with N. sicca, 2 h; in the experiment on C. psuedo, 24 h.
